Reference: patent US4910296A, “Medicaments containing alpha 1 thymosin fragments and having an immunostimulant action, and fragments of alpha 1 thymosin” (priority 1980, dated 1990)
Where two headings read alike, the source gives them in different places. Residues, ends and D or L forms follow the SMILES beside them. No end group written: not given here.

Experiments:
[1] = system: human peripheral lymphocytes; type: cell-based; conditions: for stimulation (+) / inhibition (-) of mixed lymphocyte culture: 1 μg fragment per ml, not blocked, culture without addition = 0%; for Stimulation (%) of allogenic mixed culture: 1 microgram thymosin α1 per ml
Description: (§1) The immunological test methods used were the E-rosette test according to Wara, Ammann et al. (N.Y. Acad. Sci. 249 (1975) 308 and N. Engl. J. Med. 292 (1975) 70) and the method of mixed lymphocyte culture, both methods involving additional inhibition of cellular RNS polymerase by alpha-amanitin. The E-rosette test is based on the fact that the percentage of E-rosette forming cells in peripheral human blood is a measure of the content of fully mature T-cells, which form with sheep's red blood cells characteristic aggregates which can be counted under the microscope.
The test in mixed lymophocyte cultures is based on the fact that T-cells are made to proliferate by stimulation with allogenic antigens. For the performance of the test, the lymphocytes of donor A ("responder") are incubated with those of donor B ("stimulator") for 4 to 5 days. Then ^3 H-thymidin is added and the rate of proliferation is measured on the basis of the increasing radioactivity of the cell culture due to the installation of the radioactive material. Since both populations A and B might be made to proliferate, resulting in an unclear effect, population B is blocked with mitomycin C in all metabolical activities. This test is routinely used before organ transplants to determine the immunological compatibility of donor and receiver tissues.

[2] = system: peripheral human lymphocytes; type: cell-based; conditions: for E-rosette number (%): cells blocked with α-amanitin = 0%, normal level without any addition = 100%, at optimum concentration; for Optimum concentr.: concentration giving the stated E-rosette number; for Relative number of E-rosettes (%): after inhibition with α-amanitin
Description: as §1
For the performance of the E-rosette test, peripheral human lymphocytes are isolated by a gradient centrifugation. Their RNS polymerase is blocked by alpha-amanitin. […] This value is taken as 100% in a relative numerical scale, and after the Alpha-amanitin blockage it is taken to be 0%; see Table XII.

| Compound | stimulation (+) / inhibition (-) of mixed lymphocyte culture ([1]; cell pair AB) | stimulation (+) / inhibition (-) of mixed lymphocyte culture ([1]; cell pair CD) | stimulation (+) / inhibition (-) of mixed lymphocyte culture ([1]; cell pair DC) | E-rosette number (%) [2] [%] | Optimum concentr. [2] [μm] | also measured |
| --- | --- | --- | --- | --- | --- | --- |
| KDAAVD [Ia] | -8% | -73% | -31% | 93 | 16 | stimulation (+) / inhibition (-) of mixed lymphocyte culture ([1]; cell pair BA): -15% |
| C[C@H](NC(=O)[C@@H](N)CCC(=O)O)C(=O)N[C@@H](CCC(=O)O)C(=O)N[C@@H](CC(N)=O)C(=O)O [V] (H-EAEN-OH) | +223% | +45% | +37% | 42 | 113 |  |
| KEVVEEAEN [VI] | +153% | +57% |  | 16 | 10 |  |
| TKDLKEKKEVVEEAEN [VII] |  |  |  | 41 | 6 |  |
| Ac-SDAAVDTSSEIT [IX] | -74% | -63% | -77% | 40 | 4 |  |
| TSSEIT [II] |  | -53% | +30% | 29 | 80 | stimulation (+) / inhibition (-) of mixed lymphocyte culture ([1]; cell pair BA): -18% |
| thymosin α1 (SDAAVDTSSEITTKDLKEKKEVVEEAEN; ends and bridges not checked; UniProt P06454 2-29, looked up) [Thymosin (synthetic), parent substance, totally synthetic thymosin α1, 28 amino acids, analytically pure, reference compound] |  |  |  | 100 | 1.6 | Stimulation (%) of allogenic mixed culture ([1]; cell pair AB, culture inhibited with 1 microgram α-amanitin per ml): +86%; Stimulation (%) of allogenic mixed culture ([1]; cell pair AB, culture not inhibited, stimulator cells blocked with mitomycin): +20%; Stimulation (%) of allogenic mixed culture ([1]; cell pair AD, culture inhibited with 1 microgram α-amanitin per ml): +37%; Stimulation (%) of allogenic mixed culture ([1]; cell pair AD, culture not inhibited): +4%; Stimulation (%) of allogenic mixed culture ([1]; cell pair BA, culture inhibited with 1 microgram α-amanitin per ml): +47%; Stimulation (%) of allogenic mixed culture ([1]; cell pair BA, culture not inhibited): +27%; Stimulation (%) of allogenic mixed culture ([1]; cell pair BD, culture inhibited with 1 microgram α-amanitin per ml): +51%; Stimulation (%) of allogenic mixed culture ([1]; cell pair BD, culture not inhibited): +45%; Stimulation (%) of allogenic mixed culture ([1]; cell pair DA, culture inhibited with 1 microgram α-amanitin per ml): +0%; Stimulation (%) of allogenic mixed culture ([1]; cell pair DA, culture not inhibited): +44%; Stimulation (%) of allogenic mixed culture ([1]; cell pair DB, culture inhibited with 1 microgram α-amanitin per ml): +1550%; Stimulation (%) of allogenic mixed culture ([1]; cell pair DB, culture not inhibited): +27%; Relative number of E-rosettes (%) ([2]; 0.25 μg per culture): 39%; Relative number of E-rosettes (%) ([2]; 0.50 μg per culture): 100%; Relative number of E-rosettes (%) ([2]; 1.00 μg per culture): 64%; Relative number of E-rosettes (%) ([2]; 2.50 μg per culture): 57%; Relative number of E-rosettes (%) ([2]; 5.00 μg per culture): 33% |
